Earlier results in patent publication US9555113B2, “Compositions with a rheological modifier to reduce dissolution variability” (Durect Corporation, priority 2013, dated 2017).
Read-outs that look alike come from different tables or passages of the source.

In the case of Sucrose Acetate Isobutyrate [SAIB], the viscosity (pure SAIB at 80° C.) is listed as “approximately 600 cP” and the viscosity (pure SAIB at ambient temperature (RT)) is listed as “approximately 2,000,000 cP”.
